Here are results for six compounds from ChEMBL document CHEMBL1153143, “Structure-based design, synthesis and biological evaluation of new N-carboxyphenylpyrrole derivatives as HIV fusion inhibitors targeting gp41” (Bioorg Med Chem Lett, 2010).

In data set [1] the test system is Human immunodeficiency virus 1. Kind of data set: Antiviral activity against HIV1 3B in human MT2 cells assessed as inhibition of p24 antigen level after 4 days by ELISA. Format: functional, organism-based. Conditions: Human immunodeficiency virus 1, 3B, MT2, 96 h. In general terms: In an ELISA, binding on a coated surface is turned into a signal by an enzyme label.

For a further data set, the system named is MT2. Briefly: Cytotoxicity against human MT2 cells after 4 days by XTT assay. Format: cell-based. Conditions: mt2, 96 h. On the technique in general: Formazan colour is commonly taken as a measure of viable cells.
Data set [2] in a line: Selectivity index, ratio of CC50 for human MT2 cells to EC50 for HIV1 3B. Format: toxicity, cell-based. Conditions: read-out: Ratio CC50/IC50.
The nature of data set [3]: Inhibition of HIV1 3B gp41 six-helix bundle formation after 30 mins by native-polyacrylamide gel electrophoresis. Further details: species or system Human immunodeficiency virus 1.
For data set [4], the system named is Human immunodeficiency virus 1. Briefly: Antiviral activity against HIV1 3B in human MT2 cells assessed as reduction of virus-induced cytopathogenicity. Format: functional, organism-based. Conditions: Human immunodeficiency virus 1, 3B. Background: Damage to the host cells serves as the signal in cytopathic effect assays.
Data set [5] relates to Human immunodeficiency virus 1. Briefly: Antiviral activity against HIV1 3B in human MT2 cells assessed as inhibition of cell-cell fusion. The data set is classed as functional, organism-based. The note with it: Human immunodeficiency virus 1, 3B.

Turning to `Cc1ccc(C)n1-c1ccc(-c2ccc(C(=O)O)cc2)c(C(=O)O)c1`, the IC50 (as a rule, the concentration needed to halve the response being measured) was 25.6 µM in data set [1], 20.5 µM in data set [3], 33.9 µM in data set [4] and 26 µM in data set [5]. In addition, the CC50 (commonly the concentration at which the toxic effect on the cells reaches its halfway point) with MT2 was found to be 355 µM. For the same compound, in data set [2], the selectivity ratio worked out at 13.8.

For the compound `Cc1ccc(C)n1-c1ccc(-c2ccccc2)c(C(=O)O)c1`, the IC50 is 17.8 µM in data set [1], 29 µM in data set [3], 37.9 µM in data set [4] and 59.2 µM in data set [5]. Besides, in the data set with MT2, the CC50 amounted to 290 µM. Moreover, the selectivity ratio in data set [2] is 16.3.

As for `Cc1ccc(C)n1-c1ccc(-c2ccc(CCC(=O)O)cc2)c(C(=O)O)c1`, the 50% inhibitory concentration (IC50) is 8.3 µM in data set [1], 21.8 µM in data set [3], 13.1 µM in data set [4] and 8.3 µM in data set [5]. This compound also returned a CC50 in the data set on MT2 of 227 µM. The selectivity ratio in data set [2] came to 27.4.

With `Cc1ccc(-c2ccc(-n3c(C)ccc3C)cc2C(=O)O)cc1`, the IC50 in data set [1] came out at 18.2 µM; in data set [3] it was 21.3 µM; in data set [4], 79.5 µM; in data set [5] it was 51.6 µM. Moreover, the midpoint of cytotoxicity with MT2, the CC50, lay at 280 µM. The selectivity ratio in data set [2] worked out at 15.4.

With `Cc1ccc(C)n1-c1ccc(-c2ccc(/C=C/C(=O)O)cc2)c(C(=O)O)c1`, the IC50 was determined as 4.91 µM in data set [1], 20.7 µM in data set [3], 7.71 µM in data set [4] and 3.6 µM in data set [5]. This compound had a cytotoxic concentration (CC50) in the data set on MT2 of 255 µM.

Turning to `Cc1ccc(C)n1-c1ccc(O)c(C(=O)O)c1`, the IC50 worked out at 28.2 µM in data set [1], 29.4 µM in data set [3], 55.5 µM in data set [4] and 43.2 µM in data set [5]. The midpoint of cytotoxicity in the data set on MT2, the CC50, lay at 334 µM. The selectivity ratio in data set [2] came to 11.8.
